Assay results as given in US5021430A, “Certain N-substituted butyramide derivatives” (Ciba-Geigy Corporation, priority 1987, dated 1991).

Molecular target: T1, enkephalinase (Rattus norvegicus, UniProt P07861)
T1 construct: synaptic membrane preparation from rat striatum; from tissue; host or cells: rat striatum, synaptic membrane preparation
T1 sequence (P07861 1-750): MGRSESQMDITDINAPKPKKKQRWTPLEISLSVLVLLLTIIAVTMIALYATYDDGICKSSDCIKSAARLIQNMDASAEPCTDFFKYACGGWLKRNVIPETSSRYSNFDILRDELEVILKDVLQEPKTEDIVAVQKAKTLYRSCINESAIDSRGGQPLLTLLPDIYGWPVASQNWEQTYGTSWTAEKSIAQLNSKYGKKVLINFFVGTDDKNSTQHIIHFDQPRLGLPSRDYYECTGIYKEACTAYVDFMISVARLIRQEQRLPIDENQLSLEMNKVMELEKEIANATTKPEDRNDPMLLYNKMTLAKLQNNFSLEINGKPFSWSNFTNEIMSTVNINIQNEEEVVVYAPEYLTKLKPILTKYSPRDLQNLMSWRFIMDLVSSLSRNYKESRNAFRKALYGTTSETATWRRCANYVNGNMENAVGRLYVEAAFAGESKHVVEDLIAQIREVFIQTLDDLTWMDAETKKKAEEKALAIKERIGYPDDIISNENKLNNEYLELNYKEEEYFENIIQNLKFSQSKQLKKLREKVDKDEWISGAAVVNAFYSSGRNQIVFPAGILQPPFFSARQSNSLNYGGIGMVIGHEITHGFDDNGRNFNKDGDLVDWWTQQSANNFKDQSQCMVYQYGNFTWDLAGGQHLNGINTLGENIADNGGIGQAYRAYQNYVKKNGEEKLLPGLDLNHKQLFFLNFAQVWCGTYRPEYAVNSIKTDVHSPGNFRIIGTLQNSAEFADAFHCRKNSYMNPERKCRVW
Assay: enkephalinase inhibitory activity in vitro (inhibition of 3H-Tyr-gly-gly generation from 3H-Leu-enkephalin)
Type: biochemical
Conditions: rat striatum synaptic membrane preparation, pH 6.5, 3H-Leu-enkephalin, 15 minutes at 30° C., 10^-6 M Bestatin
Method: The enkephalinase inhibitory activity is determined in vitro by an adaptation of the method of Alstein et al. as described in Life Sciences 28, 185 (1981), as follows:
A mixture of a solution of the test compound in distilled water or distilled water and ethanol diluted with pH 6.5 buffer and of a synaptic membrane preparation from rat striatum is incubated at pH 6.5 with ^3 H-Leu-enkephalin for 15 minutes at 30° C., in the presence of 10^-6 M Bestatin (to inhibit aminopeptidase activity). The reaction is stopped by the addition of 30% acetic acid and the reaction product ^3 H-Tyr-gly-gly is separated from unreacted ^3 H-Leu-enkephalin on a Porapak O column followed by a Cu^++-chelex column. The ^3 H-Tyr-gly-gly is counted by liquid scintillation. The amount of ^3 H-Tyr-gly-gly generated in the presence of test compound as compared to control is then calculated. An IC50 value representing the concentration of test compound required for 50% inhibition of ^3 H-Tyr-gly-gly generation is then determined graphically.

Row | SMILES | IC50 [nM] | IC50 (unit inferred) [nM]
1 | O=C(O)[C@H](Cc1ccccc1)C[C@@H](Cc1ccccc1)C(=O)N[C@@H](CCc1ccccc1)C(=O)O [N-[(S,S)-2,4-dibenzyl-4-carboxybutyryl]-(L)-homophenylalanine] | ~5 | 
2 | O=C(O)[C@H](Cc1ccccc1)C[C@@H](Cc1ccccc1)C(=O)N[C@@H](COCc1ccccc1)C(=O)O [N-[(S,S)-2,4-dibenzyl-4-carboxybutyryl]-O-benzyl-(L)-serine] |  | ~4
3 | O=C(O)[C@H](Cc1ccccc1)C[C@@H](Cc1ccccc1)C(=O)N[C@@H](CSCc1ccccc1)C(=O)O [N-[(S,S)-2,4-dibenzyl-4-carboxybutyryl]-S-benzyl-(L)-cysteine] | ~6 | 
